Reference: BigSolDB 2.1

O=C1CCCCCCCCCCC1
solubility (mole fraction)
Details	278.15 K	283.15 K	288.15 K	293.15 K	298.15 K	303.15 K	308.15 K	313.15 K
in 1,2-dichloroethane	0.366	0.394	0.441	0.459	0.511	0.549	0.604	0.657
in acetone	0.142	0.184	0.229	0.285	0.362	0.432	0.517	0.618
in acetonitrile	0.0485	0.0711	0.104	0.16	0.225	0.322	0.466	0.637
in cyclohexane	–	0.21	0.263	0.308	0.366	0.441	0.515	0.598
in ethanol	0.0472	0.0701	0.0949	0.127	0.183	0.243	0.348	0.461
in ethyl acetate	0.195	0.235	0.286	0.345	0.407	0.477	0.553	0.615
in isobutanol	0.0949	0.121	0.158	0.202	0.261	0.331	0.424	0.54
in isopropanol	0.0967	0.122	0.155	0.2	0.262	0.341	0.445	0.55
in methanol	0.0155	0.0267	0.04	0.0679	0.108	0.166	0.272	0.399
in n-butanol	0.0988	0.125	0.164	0.204	0.258	0.327	0.415	0.527
in n-propanol	0.118	0.144	0.182	0.228	0.293	0.37	0.467	0.567
in toluene	0.33	0.378	0.41	0.454	0.501	0.553	0.607	0.675
